Entries after “also recorded” stand apart in the source; their conditions may differ. Like-named read-outs stand apart in the source and are kept apart here.
Key:
[1] = target: T1, Recombinant human microsomal MAO-A (Homo sapiens, UniProt P21397); experiment: MAO-A activity assay (fluorimetric, Amplex Red, p-tyramine); type: biochemical; details: for RA: MAO-A residual activity, active if lower than 60%; for MAO-A inhibition (experimental): MAO-A inhibitory assay
T1 construct: purchased Sigma Aldrich; host or cells: baculovirus infected insect cells (BTI-TN-5B1-4)
T1 sequence (P21397 1-527): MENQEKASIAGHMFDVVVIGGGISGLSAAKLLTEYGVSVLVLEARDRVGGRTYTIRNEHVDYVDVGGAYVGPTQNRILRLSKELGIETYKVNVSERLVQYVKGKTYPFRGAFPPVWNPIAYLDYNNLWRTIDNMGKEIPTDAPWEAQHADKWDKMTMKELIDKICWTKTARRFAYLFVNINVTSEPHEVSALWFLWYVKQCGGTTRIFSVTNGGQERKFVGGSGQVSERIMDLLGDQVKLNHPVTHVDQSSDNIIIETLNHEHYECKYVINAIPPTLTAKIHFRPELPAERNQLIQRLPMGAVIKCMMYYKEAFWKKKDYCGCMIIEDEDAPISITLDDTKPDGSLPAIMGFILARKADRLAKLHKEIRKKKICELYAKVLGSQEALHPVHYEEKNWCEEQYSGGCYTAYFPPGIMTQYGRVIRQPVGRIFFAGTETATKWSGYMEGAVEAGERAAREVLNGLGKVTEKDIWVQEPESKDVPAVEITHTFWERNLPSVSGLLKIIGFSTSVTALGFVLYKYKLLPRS
Protocol: The effects of the test compounds on MAO-A were investigated using a fluorimetric assay, following a previously described methodology. The inhibitory activity of the compounds was evaluated by their effects on the production of hydrogen peroxide (H2O2) from p-tyramine. The production of H2O2 was detected using Amplex Red reagent in the presence of horseradish peroxidase, where a highly sensitive fluorescent product, resorufin, is produced at stoichiometric amounts. Recombinant human microsomal MAO-A enzyme expressed in baculovirus infected insect cells (BTI-TN-5B1-4), horse-radish peroxidase (type II, lyophilized powder), and p-tyramine hydrochloride were obtained from Sigma Aldrich. 10-Acetyl-3,7-dihydroxyphenoxazine (Amplex Red reagent) was synthesized as described in the literature.
Briefly, 100 µL 50 mM sodium phosphate buffer (pH 7.4, 0.05% Triton X-114) containing the compounds and MAO-A were incubated for 30 min at 37 °C in a flat-bottomed black 96-well microplate, and placed in a dark microplate reader chamber. After the pre-incubation, the reaction was started by adding the final concentrations of 200 µM Amplex Red reagent, 2 U/mL horseradish peroxidase, and 1 mM p-tyramine (final volume, 200 µL). The production of resorufin was quantified based on the fluorescence generated (λex = 530 nm, λem = 590 nm) at 37 °C over a period of 30 min, during which time the fluorescence increased linearly. For control experiments, DMSO was used instead of the appropriate dilutions of the compounds in DMSO. To determine the blank value (b), phosphate-buffered solution replaced the enzyme solution. The initial velocities were calculated from the trends obtained, with each measurement carried out in duplicate. The specific fluorescence emission to obtain the final result was calculated after subtraction of the blank activity (b).

[2] = cited from earlier work
[3] = Kinetic measurement of adduct formation with L-glutathione (GSH) by HPLC–MS; type: physicochemical; parameters: unit not given here
Protocol: Electrophilic fragments tested against MurA, CatB and MAO-A (25–53, structures shown in Supporting Figure S2 and SMILES provided in Supporting Table S1) represent eight different warhead chemotypes reacting via two reaction mechanisms: Michael-type nucleophilic addition and nucleophilic substitution. The intrinsic thiol reactivities (see Table 1) were determined by kinetic measurement of adduct formation with L-glutathione (GSH), a widely used cysteine surrogate, by an HPLC–MS methodology, as described in the referred study.

MurA [4] = target: T2, MurA (Escherichia coli, UniProt P0A749); details: cited from earlier work; for MurA RA (%): residual activity at 100 μM, single point; for experimental activity class against MurA: < 60% residual activity at 100 μM considered active
CatB [5] = target: T3, CatB (Homo sapiens, UniProt P07858); experiment: CatB single point enzyme activity assay (residual activity); details: for remaining activity at 100 µM: read-out: RA
Protocol: (§1) These fragments were measured in single point enzyme activity assays at 100 μM concentration against MurA and CatB.

CatB [6] = target: T3, CatB; parameters: method as in PMID 30321804; details: cited from earlier work; for CatB RA (%): residual activity at 100 μM, single point; for experimental activity class against CatB: < 60% residual activity at 100 μM considered active
MurA [7] = target: T2, MurA; experiment: biochemical; details: read-out: RA
Protocol: as §1

KRAS^G12C = tested on: KRAS^G12C; parameters: method as in PMID 28621541; details: > 50% labeling at 100 μM considered active; cited from earlier work
MurA [8] = target: T2, MurA; details: MurA residual activity; active if lower than 60%
Protocol: as §1

human MAO-A = target: T4, human MAO-A (Homo sapiens, UniProt P21397); experiment: Labelling of human MAO-A, tryptic digestion and LC–MS/MS; type: binding; details: 24 h at 4 °C, tryptic digestion
T4 sequence (P21397 1-527): T1 sequence (P21397 1-527)

[9] = half-life of adduct formation with L-glutathione

T2 sequence (P0A749 whole entry): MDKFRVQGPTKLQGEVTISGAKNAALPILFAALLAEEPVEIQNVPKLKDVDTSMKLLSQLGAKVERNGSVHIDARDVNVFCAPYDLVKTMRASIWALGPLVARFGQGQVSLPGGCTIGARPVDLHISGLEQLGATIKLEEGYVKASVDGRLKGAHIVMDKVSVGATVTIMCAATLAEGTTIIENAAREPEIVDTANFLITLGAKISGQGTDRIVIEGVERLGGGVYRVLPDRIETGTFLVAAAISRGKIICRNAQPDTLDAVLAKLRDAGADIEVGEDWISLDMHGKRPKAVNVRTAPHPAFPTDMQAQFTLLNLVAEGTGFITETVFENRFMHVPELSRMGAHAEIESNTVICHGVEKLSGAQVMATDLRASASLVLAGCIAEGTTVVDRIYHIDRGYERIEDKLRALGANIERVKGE

Row | Compound | RA [1] [%] | GSH half-life [2, 9] [h] | Reactivity, Experimental ln(k) vs GSH [3] | MurA RA (%) (MurA [4]) | remaining activity at 100 µM (CatB [5]) [%] | CatB RA (%) (CatB [6]) | remaining activity at 100 µM (MurA [7]) [%] | experimental activity class against KRAS^G12C (KRAS^G12C) | MAO-A inhibition (experimental) [1] | experimental activity class against MurA (MurA [4]) | experimental activity class against CatB (CatB [6]) | RA (MurA [8]) [%] | RA (CatB [5]; CatB residual activity, active if lower than 60%) [%] | GSH half-life ([2]; buffer) [h] | covalent labelling of MAO-A (MS/MS) (human MAO-A)
1 | O=S(=O)(/C=C/c1ccccc1)c1ccccc1 [Compound 35, O=S(=O)(/C=C/c1ccccc1)c1ccccc1] | 87 | 94.3 | -4.913 | 82 | 77 | 77 | 82 |  |  |  |  |  |  |  | 
2 | C=CC(=O)N(C)C [Compound 29, C=CC(=O)N(C)C] | 75 | 127 | -5.211 | 95 | 75 | 75 | 95 |  |  |  |  |  |  |  | 
3 | CC#CC(=O)OCC [Compound 37, CC#CC(=O)OCC] | 84 | 16.9 | -3.194 | 82 | 84 | 84 | 82 |  |  |  |  |  |  |  | 
4 | Cc1ccc2[nH]ncc2c1-c1c(Cl)cc2c(N3CCC(NC(=O)CCl)CC3)ncnc2c1F [Compound 17, c1n[nH]c(c12)ccc(C)c2-c(c(Cl)c3)c(F)c(c34)ncnc4N5CCC(CC5)NC(=O)CCl] |  |  |  |  |  |  |  | experimental actives |  |  |  |  |  |  | 
5 | Cc1ccccc1NC(=O)CCl [Compound 47, Cc1ccccc1NC(=O)CCl] | 78 | 326 | -6.153 | 83 | 86 | 86 | 83 |  |  |  |  |  |  |  | 
6 | O=C1C=CC(=O)N1Cc1ccccc1 [Compound 39, O=C1C=CC(=O)N1Cc1ccccc1] | 0 | < 0.1 | 1.936 | 2 | 87 | 87 | 2 |  | active |  |  |  |  |  | 
7 | COc1ccccc1C(=O)CBr [Compound 46, COc1ccccc1C(=O)CBr] | 39 | < 0.1 | 1.936 | 3 | 55 | 55 | 3 |  |  | experimental MurA actives | experimental actives |  |  |  | 
8 | C/C=C/C#N [Compound 28, C/C=C/C#N] | 81 | 41.2 | -4.085 | 101 |  | 87 |  |  |  |  |  | 101 | 87 |  | 
9 | Cc1ccc2[nH]ncc2c1-c1c(Cl)cc2c(N3CCN(C(=O)n4ccnc4)CC3)ncnc2c1F [Compound 14, c1n[nH]c(c12)ccc(C)c2-c(c(Cl)c3)c(F)c(c34)ncnc4N5CCN(CC5)C(=O)n6ccnc6] |  |  |  |  |  |  |  | experimental actives |  |  |  |  |  |  | 
10 | O=C1C=CC(=O)N1C1CCCCC1 [Compound 40, O=C1C=CC(=O)N1C1CCCCC1] | 3 | < 0.1 | 1.936 | 1 | 89 | 89 | 1 |  |  |  |  |  |  |  | 
11 | O=C1C=CCO1 [Compound 43, O=C1C=CCO1] | 99 | 194 | -5.634 | 75 | 99 | 99 | 75 |  |  |  |  |  |  |  | 
12 | CCOC(=O)C#Cc1ccccc1 [Compound 36, CCOC(=O)C#Cc1ccccc1] | 94 | 4.66 | -1.906 | 75 | 70 | 70 | 75 |  |  |  |  |  |  |  | 
13 | CCOC(=O)/C=C/c1ccccc1 [Compound 27, CCOC(=O)/C=C/c1ccccc1] | 97 | 48.2 | -4.242 | 92 | 79 | 79 | 92 |  |  |  |  |  |  |  | 
14 | CC(C)(C)OC(=O)N1CC=CC1=O [Compound 42, CC(C)(C)OC(=O)N1CC=CC1=O] | 47 | 161 | -5.449 | 92 | 85 | 85 | 92 |  |  |  |  |  |  |  | 
15 | O=C(CBr)c1ccccc1 [Compound 45, O=C(CBr)c1ccccc1] | 39 |  | 1.936 | 2 | 27 | 27 | 2 |  | found to inhibit MAO-A activity |  |  |  |  | < 0.1 | 
16 | O=C1C=CC(=O)N1c1ccccc1 [Compound 41, O=C1C=CC(=O)N1c1ccccc1] | 1 | < 0.1 | 1.936 | 1 | 82 | 82 | 0.8 |  |  | experimental MurA actives |  |  |  |  | 
17 | C/C=C/C(=O)OC [Compound 26, C/C=C/C(=O)OC] | 68 | 20.8 | -3.401 | 41 | 97 | 97 | 41 |  |  |  |  |  |  |  | 
18 | CN1C(=O)C=CC1=O [Compound 38, CN1C(=O)C=CC1=O] | 5 | < 0.1 | 1.936 | 1 | 91 | 91 | 1 |  |  |  |  |  |  |  | 
19 | O=C(CBr)c1ccc(-c2ccccc2)cc1 [Compound 44, O=C(CBr)c1ccc(-c2ccccc2)cc1] | 14 | < 0.1 | 1.936 | 0 | 0.1 | 0 | 0.1 |  |  |  | experimental actives |  |  |  | 
20 | C=CC(=O)Nc1cc(C(F)(F)F)cc(C(F)(F)F)c1 [Compound 32, C=CC(=O)Nc1cc(C(F)(F)F)cc(C(F)(F)F)c1] |  |  |  |  |  |  |  |  |  | experimental MurA actives |  |  |  |  | double modified; also recorded: forms a covalent bond with Cys323
